Like-named read-outs stand apart in the source and are kept apart here.
Key:
Assay type in all cases: cell-based
[1] = target: T1, CDK6 (Homo sapiens, UniProt Q00534); assay: palbociclib-based degrader
Target sequence in this assay (Q00534 whole entry): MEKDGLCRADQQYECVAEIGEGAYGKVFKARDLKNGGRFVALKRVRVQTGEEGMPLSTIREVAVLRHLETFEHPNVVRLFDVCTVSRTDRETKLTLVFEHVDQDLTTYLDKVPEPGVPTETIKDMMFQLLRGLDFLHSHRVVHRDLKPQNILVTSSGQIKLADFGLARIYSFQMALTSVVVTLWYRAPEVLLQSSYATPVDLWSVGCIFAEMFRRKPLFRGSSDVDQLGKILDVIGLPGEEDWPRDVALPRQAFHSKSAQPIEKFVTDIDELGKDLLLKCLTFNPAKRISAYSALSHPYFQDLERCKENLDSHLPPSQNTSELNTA

[2] = target: T2, CDK4 (Homo sapiens, UniProt P11802); assay: palbociclib-based degrader
Target sequence in this assay (P11802 2-303): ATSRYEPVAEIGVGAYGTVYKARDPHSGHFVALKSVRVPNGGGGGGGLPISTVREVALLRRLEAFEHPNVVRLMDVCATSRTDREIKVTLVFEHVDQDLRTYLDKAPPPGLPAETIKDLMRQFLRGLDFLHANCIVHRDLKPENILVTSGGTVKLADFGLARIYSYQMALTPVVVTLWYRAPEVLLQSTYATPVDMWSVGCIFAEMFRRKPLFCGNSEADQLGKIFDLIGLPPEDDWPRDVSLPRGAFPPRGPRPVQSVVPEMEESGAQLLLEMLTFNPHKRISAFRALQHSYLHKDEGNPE

[3] = target: T2, CDK4; assay: palbociclib-based degrader; remark: listed apart in the source
Target sequence in this assay (P40337 whole entry): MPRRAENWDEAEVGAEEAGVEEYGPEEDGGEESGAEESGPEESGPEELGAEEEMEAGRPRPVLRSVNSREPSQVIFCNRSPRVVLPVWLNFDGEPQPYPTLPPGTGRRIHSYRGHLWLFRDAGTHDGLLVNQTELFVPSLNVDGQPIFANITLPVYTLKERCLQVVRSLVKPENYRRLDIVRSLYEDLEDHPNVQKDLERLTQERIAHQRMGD
Target sequence in this assay (P11802 2-303): as the sequence (P11802 2-303) above

[4] = target: T1, CDK6; assay: palbociclib-based degrader; remark: listed apart in the source
Target sequence in this assay (P40337 whole entry): as the sequence (P40337 whole entry) above
Target sequence in this assay (Q00534 whole entry): as the sequence (Q00534 whole entry) above

[5] = target: T2, CDK4; assay: IP-kinase assay
Target sequence in this assay (P11802 2-303): as the sequence (P11802 2-303) above

Structure (SMILES): CC(=O)c1c(C)c2cnc(Nc3ccc(N4CCN(CC5CCN(c6ccc7c(c6)C(=O)N(C6CCC(=O)NC6=O)C7=O)CC5)CC4)cn3)nc2n(C2CCCC2)c1=O (centres unmarked) [BSJ-03-096]
- palbociclib-based degrader; CDK6 degradation in MCF7 cells (immunoblot) [1]: ~ 10 nmol/L
- palbociclib-based degrader; CDK4 degradation in MCF7 cells (immunoblot) [2]: ~ 10 nmol/L

Structure (SMILES): CC(=O)c1c(C)c2cnc(Nc3ccc(N4CCN(CCCCC(=O)N[C@H](C(=O)N5C[C@H](O)C[C@H]5C(=O)N[C@@H](C)c5ccc(-c6scnc6C)cc5)C(C)(C)C)CC4)cn3)nc2n(C2CCCC2)c1=O [BSJ-05-017]
- palbociclib-based degrader; CDK4 degradation in MCF7 cells (immunoblot) [3]: ~ 10 nmol/L
- palbociclib-based degrader; CDK6 degradation in MCF7 cells (immunoblot) [4]: ~ 10 nmol/L

Structure (SMILES): CCN1CCN(Cc2ccc(Nc3ncc(F)c(-c4cc(F)c5nc(C)n(C(C)C)c5c4)n3)nc2)CC1 [abemaciclib]
- % reduced [5]: 84 % reduced

Reference: paper PMC8831444 (Cancer Discovery, 2021)
